According to US10457709B2, “Antimicrobial peptides, their variants and uses” (priority 2015, dated 2019):
Where two headings read alike, the source gives them in different places. Square brackets hold non-standard residues; d marks the D form. Peptide text beside a SMILES is read from it.

Key:
[1] = test system: Acinetobacter baumannii clinical strains; type: cell-based; set-up: Minimum inhibitory concentration: unit: μg/ml; conditions: microdilution, Muller Hinton broth-cation adjusted, 0.02% BSA, 0.2% acetic acid
Procedure, shortened: (§1)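 Broth microdilution in Mueller Hinton broth, inoculum adjusted to 5.0×10^5 cfu/ml, peptides tested at 0.125 to 128 μg/ml, 37° C for 20 to 24 hours. Yeast assays were run in potato dextrose broth. MIC was taken as the lowest concentration with no visible growth.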

[2] = test system: Enterobacter cloacae clinical strains; type: cell-based; set-up: Minimum inhibitory concentration: unit: μg/ml; conditions: microdilution, Muller Hinton broth-cation adjusted, 0.02% BSA, 0.2% acetic acid
Procedure, shortened: as §1

[3] = test system: Proteus mirabilis clinical strains; type: cell-based; set-up: Minimum inhibitory concentration: unit: μg/ml; conditions: for Minimum inhibitory concentration: microdilution, Muller Hinton broth-cation adjusted, 0.02% BSA, 0.2% acetic acid
Procedure, shortened: as §1

[4] = test system: Serratia marcescens clinical strains; type: cell-based; set-up: Minimum inhibitory concentration: unit: μg/ml; conditions: for Minimum inhibitory concentration: microdilution, Muller Hinton broth-cation adjusted, 0.02% BSA, 0.2% acetic acid
Procedure, shortened: as §1

[5] = test system: Staphylococcus aureus clinical strains; type: cell-based; set-up: Minimum inhibitory concentration: unit: μg/ml; conditions: microdilution, Muller Hinton broth-cation adjusted, 0.02% BSA, 0.2% acetic acid
Procedure, shortened: as §1

[6] = test system: Streptococcus pneumoniae clinical strains; type: cell-based; set-up: Minimum inhibitory concentration: unit: μg/ml; conditions: microdilution, Muller Hinton broth-cation adjusted, 0.02% BSA, 0.2% acetic acid
Procedure, shortened: as §1

[7] = test system: Candida albicans clinical strains; assay: MIC, clinical yeast strains; type: cell-based; set-up: unit: μg/ml
Procedure, shortened: as §1

[8] = test system: C. glabrata clinical strains; assay: MIC, clinical yeast strains; type: cell-based, Candida glabrata; set-up: unit: µg/ml
Procedure, shortened: as §1

[9] = test system: C. parapsilosis clinical strains; assay: MIC, clinical yeast strains; type: cell-based, Candida parapsilosis; set-up: unit: µg/ml
Procedure, shortened: as §1

[10] = test system: C. quillermondiae clinical strains; assay: MIC, clinical yeast strains; type: cell-based, Candida quillermondiae; set-up: unit: μg/ml; conditions: C. quillermondiae clinical yeast strain 1
Procedure, shortened: as §1

[11] = test system: Acinetobacter johnsonii clinical strains; type: cell-based; conditions: Acinetobacter johnsonii clinical strain 1; microdilution, Muller Hinton broth-cation adjusted, 0.02% BSA, 0.2% acetic acid
Procedure, shortened: as §1

[12] = test system: Escherichia coli clinical strains; type: cell-based; conditions: microdilution, Muller Hinton broth-cation adjusted, 0.02% BSA, 0.2% acetic acid
Procedure, shortened: as §1

[13] = test system: Klebsiella pneumoniae clinical strains; type: cell-based; conditions: microdilution, Muller Hinton broth-cation adjusted, 0.02% BSA, 0.2% acetic acid
Procedure, shortened: as §1

[14] = test system: Pseudomonas aeruginosa clinical strains; type: cell-based; conditions: microdilution, Muller Hinton broth-cation adjusted, 0.02% BSA, 0.2% acetic acid
Procedure, shortened: as §1

[15] = test system: all the bacteria and yeasts tested; type: cell-based
Procedure, shortened: as §1

Compound `CC(C)C[C@@H](NC(=O)[C@H](N)CCCNC(=N)N)C(=O)N[C@H](CCCCN)C(=O)N[C@H](Cc1c[nH]c2ccccc12)C(=O)N[C@H](Cc1ccccc1)C(=O)N[C@H](CC(C)C)C(=O)N[C@H](CC(C)C)C(=O)N[C@H](Cc1ccccc1)C(=O)N[C@H](CCCNC(=N)N)C(=O)N[C@H](CCCCN)C(=O)N[C@H](CCCNC(=N)N)C(=O)O` [Chain308D] (H-[dR][dL][dK][dW][dF][dL][dL][dF][dR][dK][dR]-OH) has a Minimum inhibitory concentration ([1]; Acinetobacter baumannii clinical strain 1) of 4, a Minimum inhibitory concentration ([1]; Acinetobacter baumannii clinical strain 2) of 4 and a Minimum inhibitory concentration ([1]; Acinetobacter baumannii clinical strain 3) of 4. The Minimum inhibitory concentration ([1]; Acinetobacter baumannii clinical strain 4) was 2, the Minimum inhibitory concentration ([1]; Acinetobacter baumannii clinical strain 5) was 2 and the Minimum inhibitory concentration ([2]; Enterobacter cloacae clinical strain 1) was 2. It also gave a Minimum inhibitory concentration ([2]; Enterobacter cloacae clinical strain 2) of 2, a Minimum inhibitory concentration ([2]; Enterobacter cloacae clinical strain 3) of 2 and a Minimum inhibitory concentration ([2]; Enterobacter cloacae clinical strain 4) of 2. For the same compound, the Minimum inhibitory concentration ([2]; Enterobacter cloacae clinical strain 5) was 2, the Minimum inhibitory concentration ([3]; Proteus mirabilis clinical strain 1) was >128 and the Minimum inhibitory concentration ([3]; Proteus mirabilis clinical strain 2) was 32. For the same compound, the Minimum inhibitory concentration ([3]; Proteus mirabilis clinical strain 3) was 128, the Minimum inhibitory concentration ([3]; Proteus mirabilis clinical strain 4) was >128 and the Minimum inhibitory concentration ([3]; Proteus mirabilis clinical strain 5) was >128. For the same compound, the “MICs against Proteus mirabilis” value ([3]; clinical strains) was 64 to 128 µg/mL, the Minimum inhibitory concentration ([4]; Serratia marcescens clinical strain 1) was 128 and the Minimum inhibitory concentration ([4]; Serratia marcescens clinical strain 2) was 128. For the same compound, the Minimum inhibitory concentration ([4]; Serratia marcescens clinical strain 3) was 64, the Minimum inhibitory concentration ([4]; Serratia marcescens clinical strain 4) was >128 and the Minimum inhibitory concentration ([4]; Serratia marcescens clinical strain 5) was 128. For the same compound, the “MICs against Serratia marcescens” value ([4]; clinical strains) was 64 to 128 µg/mL, the Minimum inhibitory concentration ([5]; Staphylococcus aureus clinical strain 1) was 1 and the Minimum inhibitory concentration ([5]; Staphylococcus aureus clinical strain 2) was 2. The Minimum inhibitory concentration ([5]; Staphylococcus aureus clinical strain 3) was 1, the Minimum inhibitory concentration ([5]; Staphylococcus aureus clinical strain 4) was 2 and the Minimum inhibitory concentration ([5]; Staphylococcus aureus clinical strain 5) was 2. It also gave a Minimum inhibitory concentration ([6]; Streptococcus pneumoniae clinical strain 1) of 8, a Minimum inhibitory concentration ([6]; Streptococcus pneumoniae clinical strain 2) of 4 and a Minimum inhibitory concentration ([6]; Streptococcus pneumoniae clinical strain 3) of 8. The Minimum inhibitory concentration ([6]; Streptococcus pneumoniae clinical strain 4) was 2, the Minimum inhibitory concentration ([6]; Streptococcus pneumoniae clinical strain 5) was 4 and the Minimum inhibitory concentration ([7]; Candida albicans clinical yeast strain 1) was 16. It also gave a Minimum inhibitory concentration ([7]; Candida albicans clinical yeast strain 2) of 16, a Minimum inhibitory concentration ([7]; Candida albicans clinical yeast strain 3) of 16 and a Minimum inhibitory concentration ([7]; Candida albicans clinical yeast strain 4) of 16. The Minimum inhibitory concentration ([7]; Candida albicans clinical yeast strain 5) was 16, the Minimum inhibitory concentration ([8]; C. glabrata clinical yeast strain 1) was 16 and the Minimum inhibitory concentration ([8]; C. glabrata clinical yeast strain 2) was 16. For the same compound, the Minimum inhibitory concentration ([8]; C. glabrata clinical yeast strain 3) was 16, the Minimum inhibitory concentration ([8]; C. glabrata clinical yeast strain 4) was 16 and the Minimum inhibitory concentration ([9]; C. parapsilosis clinical yeast strain 1) was 8. The Minimum inhibitory concentration ([9]; C. parapsilosis clinical yeast strain 2) was 8, the Minimum inhibitory concentration ([9]; C. parapsilosis clinical yeast strain 3) was 8 and the Minimum inhibitory concentration ([9]; C. parapsilosis clinical yeast strain 4) was 4. For the same compound, the Minimum inhibitory concentration [10] was 4, the Minimum inhibitory concentration [11] was 4 and the Minimum inhibitory concentration ([12]; Escherichia coli clinical strain 1) was 1. The Minimum inhibitory concentration ([12]; Escherichia coli clinical strain 2) was 0.5, the Minimum inhibitory concentration ([12]; Escherichia coli clinical strain 3) was 1 and the Minimum inhibitory concentration ([12]; Escherichia coli clinical strain 4) was 1. The Minimum inhibitory concentration ([12]; Escherichia coli clinical strain 5) was 1, the Minimum inhibitory concentration ([13]; Klebsiella pneumoniae clinical strain 1) was 4 and the Minimum inhibitory concentration ([13]; Klebsiella pneumoniae clinical strain 2) was 4. It also gave a Minimum inhibitory concentration ([13]; Klebsiella pneumoniae clinical strain 3) of 4, a Minimum inhibitory concentration ([13]; Klebsiella pneumoniae clinical strain 4) of 4 and a Minimum inhibitory concentration ([13]; Klebsiella pneumoniae clinical strain 5) of 4. It also gave a Minimum inhibitory concentration ([14]; Pseudomonas aeruginosa clinical strain 1) of 8, a Minimum inhibitory concentration ([14]; Pseudomonas aeruginosa clinical strain 2) of 8 and a Minimum inhibitory concentration ([14]; Pseudomonas aeruginosa clinical strain 3) of 4. For the same compound, the Minimum inhibitory concentration ([14]; Pseudomonas aeruginosa clinical strain 4) was 4, the Minimum inhibitory concentration ([14]; Pseudomonas aeruginosa clinical strain 5) was 4 and the “MICs against all the bacteria and yeasts tested” value [15] was 0.5 to 32 µg/mL.
